Reference: patent US20250361307A1, “COMBINATION THERAPIES FOR TREATING HYPERPROLIFERATIVE DISORDERS” (X4 Pharmaceuticals, Inc., priority 2022, published 2025)
Blank lines part the entries; values can stand above or below the compound they belong to.

Experiments:
[1] = test system: MWCL-1 cells; assay: Transwell migration assay; type: cell-based
Protocol: Cell migration toward CXCL12 gradient or BMSC monolayer was determined using the Transwell migration assay. MWCL-1 cells were stained with 500 nM Calcein AM (Invitrogen, #C1430) and preincubated with mavorixafor for 15 minutes before transfer (5×10^5 cells) to an upper well of a […] pore size Transwell® (Corning, #3421). […] Wells without CXCL12 were treated with 10 μM LIT-927 (Selleck Chemicals, #S8813), a neutraligand of CXCL12, to serve as background control. After 4 hours of incubation, cells that migrated to the lower chambers were collected and resuspended in Dulbecco's phosphate-buffered saline (DPBS) containing Precision Count Beads™ (BioLegend, #424902). Migrated cells and counting beads were counted by flow cytometry

[2] = test system: MWCL-1 cells; assay: BMSC-induced IgM hypersecretion, MWCL-1/HS-27A coculture (ELISA); type: cell-based
Protocol: (§1) BMSCs were cultured in 96-, 48-, or 24-well plates until 90% confluence. […] Cells were coincubated for 48 or 72 hours followed by measurement of cell viability, apoptosis, IgM, and IL-6 release. The IgM levels were quantitated using a human IgM Enzyme-linked immunosorbent assay (ELISA) kit (Abcam, #ab214568) according to the manufacturer's instructions. IL-6 levels were quantitated using an IL-6 ELISA MAX™ kit (BioLegend, #430515) per manufacturer's recommendations. For all ELISA kits, plates were developed with 3,3′,5,5′-tetramethylbenzidine (TMB) development solution or a biotinylated antihuman IL-6 detection antibody/avidin horseradish peroxidase (HRP) solution. The reaction was stopped with the stop solution, and absorbance was read at 450 nm with a microplate reader (Synergy™ HT, BioTek Instruments).

[3] = test system: WM cell-BMSC coculture; assay: IL-6 release in WM/BMSC coculture model (ELISA); type: cell-based; conditions: WM cell-BMSC coculture (FIG. 12)
Protocol: as §1

[4] = test system: MWCL-1 cells; assay: Apoptosis of MWCL-1 cells in coculture with HS-27A BMSCs; type: cell-based; conditions: for % apoptotic cells: with BMSC (HS-27a) (FIG. 13A)
Protocol: (§2) BMSCs were cultured in 96-, 48-, or 24-well plates until 90% confluence. MWCL-1 cells (density≈2×10^5 cells/mL) were pretreated with indicated concentration of mavorixafor together with indicated concentrations of B-cell-targeted inhibitors in medium containing 4% FBS for 1 hour and transferred to the BMSC monolayer. Cells were coincubated for 48 or 72 hours followed by measurement of cell viability, apoptosis, IgM, and IL-6 release.
(§3) Cells were washed with PBS, resuspended in Annexin V binding buffer (BioLegend, #422201), and stained with Alexa Fluor® 647 Annexin V (BioLegend, #640943), propidium iodide (BD Pharmingen, #51-66211E), and CD45 antibody (BioLegend, #368502) for 15 minutes at room temperature and analyzed by flow cytometry.

[5] = test system: CXCL12-induced Ca2+ mobilization in MWCL-1 cells; assay: Calcium mobilization assay (Fluo-4 AM); type: cell-based; conditions: dose-dependent (FIG. 3D)
Protocol: MWCL-1 cells (2×10^5 cells/well) were seeded in transparent bottom, black 96-well plates coated with poly-L-lysine (BioCoat®, Corning) and serum-starved (medium with 1% FBS) for 24 hours. Medium was removed and cells were loaded with 100 μL of fluo-4 AM (3 μM, Invitrogen, #F14201) dye solution for 45 minutes at 37° C. Subsequently, 100 μL of assay buffer alone or assay buffer with compound dilutions was added, and the plates were equilibrated in the plate reader for an additional 20 minutes at 37° C. The CXCL12 was injected with simultaneous measurement of fluorescent signal (FlexStation® 3 Multi-Mode Microplate Reader, Molecular Devices). Raw traces were analyzed in SoftMax®Pro 7 Software (Molecular Devices). The arbitrary units were calculated as the difference between maximal and minimal signal after treatment injection, normalized to the baseline signal before injection.

[6] = test system: MWCL-1 cells; assay: Apoptosis of MWCL-1 cells in monoculture (Annexin V flow cytometry); type: cell-based
Protocol: BMSCs were cultured in 96-, 48-, or 24-well plates until 90% confluence. […] Cells were coincubated for 48 or 72 hours followed by measurement of cell viability, apoptosis, IgM, and IL-6 release.
as §3

[7] = test system: MWCL-1 cells; assay: Cell viability of MWCL-1 cells (CellTiter-Glo); type: cell-based; conditions: tested concentrations, 4 hours, data not shown
[8] = test system: cleavage of caspase-3 and PARP in MWCL-1 cells; assay: Immunoblotting of apoptotic markers; type: cell-based; conditions: MWCL-1 monoculture (FIG. 4G)
Protocol: Whole cells were lysed by radioimmunoprecipitation assay (RIPA) lysis buffer (Sigma-Aldrich, #R0278) with protease inhibitor cocktail (Roche Custom Biotech, #11697498001). Lysates were separated by sodium dodecyl sulfate polyacrylamide gel-electrophoresis (SDS-PAGE) electrophoresis and transferred to Trans-Blot® Turbo™ Mini PVDF Transfer Packs (Bio-Rad). Membranes were incubated with primary antibodies: anti-poly adenosine diphosphate (ADP)-ribose polymerase (PARP) (1:1000, Cell Signaling, #9542); Anti-Caspase 3 (1:1000, Cell Signaling, #9662) and antitubulin (1:5000, R&D, #MAB9344). Secondary HRP-conjugated antibodies (Abcam) were used at 1:10.000 dilution. Membranes were developed with enhanced chemiluminescence reagent (Amersham™ ECL Prime Western Blotting Detection Reagent, GE Healthcare) on LAS4000 gel documentation system.

[9] = test system: HS-27A and HS-5 BMSCs; assay: Apoptosis of BMSCs cocultured with WM cells; type: cell-based; conditions: WM cell-BMSC coculture, mavorixafor alone (FIG. 11A-B)
Protocol: as §3, with “BMSCs were cultured in 96-, 48-, or 24-well plates until 90% confluence. […] Cells were coincubated for 48 or 72 hours followed by measurement of cell viability, apoptosis, IgM, and IL-6 release. Cells” for “Cells”

[10] = test system: ALL cells; conditions: cited from earlier work
[11] = test system: MWCL-1 cells; assay: Adhesion assay of MWCL-1 cells to BMSC monolayer; type: cell-based; conditions: pretreatment, 4 hours (FIG. 3A)
Protocol: MWCL-1 cells were labeled with 1 μM Calcein AM. After 10 minutes at 37° C., cells were washed, resuspended in medium containing 1% FBS, and treated with compounds for 30 minutes (2.25× 10^5 cells/mL). MWCL-1 cells were transferred to the BMSC monolayer. After 4 hours, nonadherent cells were removed by gently washing with phosphate-buffered saline (PBS). Remaining cells were harvested, resuspended in flow buffer (Hanks balanced salt solution+20 mM HEPES+0.5% […]) and analyzed by flow cytometry.

[12] = Solubility of mavorixafor; type: physicochemical
[13] = patients with WHIM syndrome; cited from earlier work
[14] = Terminal half-life of mavorixafor; conditions: in vivo
[15] = test system: CXCR4 cell surface expression in MWCL-1 cells; assay: CXCR4 cell surface expression in MWCL-1 cells (flow cytometry); type: cell-based; conditions: MWCL-1 cocultured with HS-27A BMSCs (FIG. 2B)
Protocol: Flow experiments were performed with the CytoFLEX S Flow Cytometer (Beckman Coulter). Samples were analyzed using FCS Express Software (De Novo Software).
[…] Cells were stained with CXCR4 antibody (BD Pharmigen, #555976) and measured by flow cytometry.

[16] = test system: MWCL-1 cells; assay: IL-6-mediated IgM secretion in MWCL-1 cells (ELISA); type: cell-based; conditions: exogenous IL-6 (FIG. 1F)
Text: (§4) The IgM levels were quantitated using a human IgM Enzyme-linked immunosorbent assay (ELISA) kit (Abcam, #ab214568) according to the manufacturer's instructions. IL-6 levels were quantitated using an IL-6 ELISA MAX™ kit (BioLegend, #430515) per manufacturer's recommendations. For all ELISA kits, plates were developed with 3,3′,5,5′-tetramethylbenzidine (TMB) development solution or a biotinylated antihuman IL-6 detection antibody/avidin horseradish peroxidase (HRP) solution. The reaction was stopped with the stop solution, and absorbance was read at 450 nm with a microplate reader (Synergy™ HT, BioTek Instruments).

[17] = test system: WM mouse xenograft; conditions: cited from earlier work
[18] = test system: human WM cells; conditions: mouse, in vivo; cited from earlier work
[19] = target: BCL-XL (Homo sapiens, UniProt Q07817); conditions: cited from earlier work
[20] = target: T1, BCL-w (Homo sapiens, UniProt Q92843); conditions: cited from earlier work
T1 sequence (Q92843 1-193): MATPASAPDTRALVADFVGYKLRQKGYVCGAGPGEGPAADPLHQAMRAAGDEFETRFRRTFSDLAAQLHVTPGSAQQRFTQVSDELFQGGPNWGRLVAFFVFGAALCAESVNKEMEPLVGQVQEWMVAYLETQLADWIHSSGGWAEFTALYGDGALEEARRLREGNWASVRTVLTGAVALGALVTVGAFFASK

[21] = target: BCL-2 (Homo sapiens, UniProt P10415); conditions: cited from earlier work
[22] = target: T2, BTK (Homo sapiens, UniProt Q06187); conditions: patients with relapsed/refractory CLL and other B-cell disorders; cited from earlier work
T2 construct: endogenous in cells

[23] = test system: MWCL-1 cells; assay: Sensitivity of MWCL-1 cells in coculture with HS-5 BMSCs (apoptosis, IgM); type: cell-based; conditions: HS-5 BMSC coculture vs monoculture (FIG. 10A-D)
Protocol: as §2, §4, §3

[24] = absence of bone marrow stroma, 72 hours (FIG. 15)

Sequence of BCL-XL (Q07817 whole entry): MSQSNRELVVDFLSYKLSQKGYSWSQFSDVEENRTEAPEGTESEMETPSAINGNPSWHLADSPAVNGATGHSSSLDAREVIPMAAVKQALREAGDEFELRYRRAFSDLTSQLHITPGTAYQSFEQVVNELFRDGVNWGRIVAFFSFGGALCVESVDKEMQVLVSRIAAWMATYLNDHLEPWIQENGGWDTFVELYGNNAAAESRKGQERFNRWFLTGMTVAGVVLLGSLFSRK
T2 sequence (Q06187 whole entry): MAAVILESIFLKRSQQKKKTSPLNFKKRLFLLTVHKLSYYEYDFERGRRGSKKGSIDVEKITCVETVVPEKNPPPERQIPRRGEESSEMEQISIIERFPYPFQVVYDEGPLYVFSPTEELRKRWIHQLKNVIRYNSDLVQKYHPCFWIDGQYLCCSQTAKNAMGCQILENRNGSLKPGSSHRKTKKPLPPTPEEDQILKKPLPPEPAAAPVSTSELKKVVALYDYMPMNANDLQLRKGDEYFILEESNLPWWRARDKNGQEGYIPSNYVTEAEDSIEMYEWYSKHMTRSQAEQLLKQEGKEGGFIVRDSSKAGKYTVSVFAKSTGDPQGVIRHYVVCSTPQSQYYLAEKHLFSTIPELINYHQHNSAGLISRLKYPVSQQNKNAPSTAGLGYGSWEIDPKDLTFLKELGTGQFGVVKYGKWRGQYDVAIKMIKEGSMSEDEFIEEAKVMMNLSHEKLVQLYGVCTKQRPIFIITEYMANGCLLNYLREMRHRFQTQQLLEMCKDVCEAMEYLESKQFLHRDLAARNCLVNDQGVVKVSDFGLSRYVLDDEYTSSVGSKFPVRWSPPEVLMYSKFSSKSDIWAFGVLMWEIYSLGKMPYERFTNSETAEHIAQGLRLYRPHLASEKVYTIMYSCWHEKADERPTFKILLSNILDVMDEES
Sequence of BCL-2 (P10415 whole entry): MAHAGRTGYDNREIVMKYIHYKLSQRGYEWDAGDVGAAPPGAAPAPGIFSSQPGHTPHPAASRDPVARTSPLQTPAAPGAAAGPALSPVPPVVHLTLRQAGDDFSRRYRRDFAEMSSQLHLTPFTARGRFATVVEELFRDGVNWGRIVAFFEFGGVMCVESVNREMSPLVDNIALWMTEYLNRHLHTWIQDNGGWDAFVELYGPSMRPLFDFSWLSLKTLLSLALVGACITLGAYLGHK

solubility ([12]; aqueous buffer, pH range 3.0 to 8.0): > 100 mg/mL
Solubility in water ([12]; water): only slightly soluble
half-life [14]: 12 to 24 h
Compound: NCCCCN(Cc1nc2ccccc2[nH]1)[C@H]1CCCc2cccnc21 [Mavorixafor]
migration toward BMSC-secreted CXCL12 ([1]; HS-27A BMSCs in lower chamber (FIG. 3C)): significantly inhibited
migration toward a CXCL12 gradient ([1]; pretreatment of MWCL-1 cells (FIG. 3B)): significantly inhibited
BM stroma-induced IgM hypersecretion, combination with ixazomib ([2]; BMSC: HS-27A cells, 72 hours (FIG. 16)): Synergizes
BMSC-induced IgM hypersecretion ([2]; HS-27A coculture, 48 or 72 hours (FIG. 6A-G)): inhibited
IL-6 release [3]: no significant effect
sensitivity of MWCL-1 cells to apoptosis by B-cell-targeted inhibitors in presence of BMSCs ([4]; HS-27A BMSC coculture (FIG. 5A-F)): restored the sensitivity
CXCL12-mediated Ca2+ mobilization [5]: blocked
apoptosis efficacy of ixazomib when mavorixafor is added [6, 24]: Enhances
apoptosis of MWCL-1 cells, single agent ([6]; monoculture (FIG. 8A-F, FIG. 4A-F)): minor increase
cytotoxicity in MWCL-1 cells [7]: not sufficient to induce cytotoxicity
proteolytic cleavage of caspase-3 and PARP [8]: minor effects
apoptosis of BMSCs [9]: much weaker effects
CXCL12-induced signaling pathway in ALL cells [10]: effectively block
preestablished adhesion of ALL cells to stroma [10]: disrupt
sensitivity of ALL cells to vincristine and nilotinib [10]: increase sensitivity
stromal-induced migration of ALL cells [10]: block
adhesion of WM cells to BMSCs [11]: dose-dependent decrease
tolerability, treatment-related serious adverse events [13]: well tolerated, with no treatment-related serious adverse events

Compound: Tocilizumab: IL-6R antibody tocilizumab (Actemra, Genentech)
increase of CXCR4 surface expression by HS-27A BMSC coculture [15]: inhibited
IL-6-mediated IgM secretion [16]: inhibited
IgM secretion [17]: reduces
tumor growth [17]: reduces
% apoptotic cells [4]: neither Ibrutinib nor Tocilizumab as a single therapy increased

Compound: ulocuplumab: monoclonal anti-CXCR4 antibody
tumor infiltration in BM, spleen, and lymph nodes [18]: reduced

Compound: CN(CC(=O)N(Cc1ccc(C2CCCCC2)cc1)c1ccc(C(=O)O)c(O)c1)S(=O)(=O)c1c(F)c(F)c(F)c(F)c1F [BP-1-102]
IL-6-mediated IgM secretion [16]: inhibited

Compound: CC(C)C[C@H](NC(=O)CNC(=O)c1cc(Cl)ccc1Cl)B(O)O [Ixazomib, reference compound]
killing / apoptosis of MWCL-1 tumor cells [6, 24]: Kills

Compound: CN(C)CC[C@H](CSc1ccccc1)Nc1ccc(S(=O)(=O)NC(=O)c2ccc(N3CCN(Cc4ccccc4-c4ccc(Cl)cc4)CC3)cc2)cc1[N+](=O)[O-] [ABT-737]
binding affinity to BCL-XL [19]: < 1 nmol/L
binding affinity to BCL-w [20]: < 1 nmol/L
binding affinity to BCL-2 [21]: < 1 nmol/L

Compound: CCc1cc(O)c(F)cc1-c1ccc2c(-c3nc4c([nH]3)CCN(C(=O)c3cnc(N5CCCCC5)cn3)C4)n[nH]c2c1 [PF-06263276]
IL-6-mediated IgM secretion [16]: inhibited

Compound: NC(=O)c1ncc(N2CCCCC2)nc1Nc1ccc(C2CCN(C[C@H]3CCN(c4ccc5c(c4)C(=O)N(C4CCC(=O)NC4=O)C5=O)C3)CC2)cc1 (stereo partly shown) [NX-2127]
degradation of BTK [22]: clinically meaningful degradation

Compound: C=CC(=O)N1CCC[C@@H](n2nc(-c3ccc(Oc4ccccc4)cc3)c3c(N)ncnc32)C1 [Ibrutinib, 1-[(3R)-3-[4-amino-3-(4-phenoxyphenyl)-1Hpyrazolo[3,4-d]pyrimidin-1-yl]-1-piperidinyl]-2-propen-1-one, reference compound]
sensitivity of MWCL-1 cells to the drug in HS-5 BMSC coculture [23]: reduced the sensitivity
% apoptotic cells [4]: neither Ibrutinib nor Tocilizumab as a single therapy increased
% apoptotic cells ([6]; absence of BMSC (FIG. 13A)): approximately 60%
